Laboratory results reported in patent US20080213250A1, “Use of Eph Receptor Inhibitors for the Treatment of Neurodegenerative Diseases” (priority 2004, published 2008).

Experiments:
TAP-tagged Eph kinases [1] = assay: Autophosphorylation of TAP-tagged Eph kinases in cells; format: cell-based; details: in cells (FIG. 2)
Description: Cells are plated in 6-well plates in growth medium (see above). To test potential modulators, preferably inhibitors, of Eph kinase tyrosine phosphorylation, cells are starved in serum-free medium for 4 h. Under these conditions, Eph-TAP kinase is partially constitutively phosphorylated-presumably through autophosphorylation that is commonly associated with over-expression of receptor tyrosine kinases. This feature is exploited to monitor the effect of Eph kinase modulators. Test compounds are diluted (from a stock in DMSO) in serum-free medium and added to cells for indicated times. Cells are chilled on ice and washed with ice-cold PBS. They are then lysed in 300 μl lysis buffer (50 mM Tris-HCl, 1% NP-40, 0.05% SDS, 100 mM NaCl, 1.5 mM MgCl2, 2 mM EDTA, 5% glycerol, pH 7.6) for 20 min at 4 °C and cleared by centrifugation at 16,100×g in a table-top centrifuge for 20 min.
Lysates are subsequently incubated with 20 μl pre-washed rabbit IgG beads (Sigma) for 2 h with constant agitation at 4° C. Beads are finally washed with 1 ml of lysis buffer and immobilized protein complexes are eluted by boiling in 40 μl SDS sample buffer.
Blot membranes are probed with monoclonal antibody 4G10 (Upstate Biotechnology) or with HRP-coupled PAP antibody (see above).

TAP-tagged Eph kinases [2] = assay: Autophosphorylation of TAP-tagged Eph kinases in-vitro; format: biochemical; details: data not shown
EphA5 = EphA5 (Mus musculus, UniProt Q60629); assay: Chemical proteomics pull-down with immobilized compound, LC-MS/MS identification; details: maximum in any chemical proteomics experiment
Chain of EphA5 (Q60629 27-876): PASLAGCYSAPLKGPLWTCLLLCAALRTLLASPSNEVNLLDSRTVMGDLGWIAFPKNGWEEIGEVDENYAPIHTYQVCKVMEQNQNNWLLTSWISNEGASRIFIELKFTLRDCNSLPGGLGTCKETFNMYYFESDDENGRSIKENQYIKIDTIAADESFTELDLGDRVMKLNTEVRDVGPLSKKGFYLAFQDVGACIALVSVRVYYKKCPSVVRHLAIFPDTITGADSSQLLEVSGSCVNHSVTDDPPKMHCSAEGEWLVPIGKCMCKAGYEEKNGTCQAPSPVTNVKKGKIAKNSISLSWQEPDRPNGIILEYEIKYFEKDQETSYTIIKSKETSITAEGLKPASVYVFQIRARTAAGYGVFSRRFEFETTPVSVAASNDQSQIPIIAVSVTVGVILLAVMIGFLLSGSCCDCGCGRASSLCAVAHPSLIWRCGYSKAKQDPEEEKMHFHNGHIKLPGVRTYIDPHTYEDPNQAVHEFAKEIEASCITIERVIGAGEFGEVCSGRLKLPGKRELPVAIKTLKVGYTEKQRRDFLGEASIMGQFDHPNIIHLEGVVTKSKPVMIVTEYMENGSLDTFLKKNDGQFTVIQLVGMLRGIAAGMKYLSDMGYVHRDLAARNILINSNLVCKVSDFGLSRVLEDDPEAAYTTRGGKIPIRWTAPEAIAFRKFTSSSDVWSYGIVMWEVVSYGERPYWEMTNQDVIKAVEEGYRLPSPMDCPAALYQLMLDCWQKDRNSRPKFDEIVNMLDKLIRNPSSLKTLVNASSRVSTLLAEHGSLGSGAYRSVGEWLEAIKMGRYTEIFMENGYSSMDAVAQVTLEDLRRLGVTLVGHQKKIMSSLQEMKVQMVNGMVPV

EphB1 = target: T1, EphB1 (Mus musculus, UniProt Q8CBF3); assay: as above; details: maximum in any chemical proteomics experiment
T1 sequence (Q8CBF3 18-984): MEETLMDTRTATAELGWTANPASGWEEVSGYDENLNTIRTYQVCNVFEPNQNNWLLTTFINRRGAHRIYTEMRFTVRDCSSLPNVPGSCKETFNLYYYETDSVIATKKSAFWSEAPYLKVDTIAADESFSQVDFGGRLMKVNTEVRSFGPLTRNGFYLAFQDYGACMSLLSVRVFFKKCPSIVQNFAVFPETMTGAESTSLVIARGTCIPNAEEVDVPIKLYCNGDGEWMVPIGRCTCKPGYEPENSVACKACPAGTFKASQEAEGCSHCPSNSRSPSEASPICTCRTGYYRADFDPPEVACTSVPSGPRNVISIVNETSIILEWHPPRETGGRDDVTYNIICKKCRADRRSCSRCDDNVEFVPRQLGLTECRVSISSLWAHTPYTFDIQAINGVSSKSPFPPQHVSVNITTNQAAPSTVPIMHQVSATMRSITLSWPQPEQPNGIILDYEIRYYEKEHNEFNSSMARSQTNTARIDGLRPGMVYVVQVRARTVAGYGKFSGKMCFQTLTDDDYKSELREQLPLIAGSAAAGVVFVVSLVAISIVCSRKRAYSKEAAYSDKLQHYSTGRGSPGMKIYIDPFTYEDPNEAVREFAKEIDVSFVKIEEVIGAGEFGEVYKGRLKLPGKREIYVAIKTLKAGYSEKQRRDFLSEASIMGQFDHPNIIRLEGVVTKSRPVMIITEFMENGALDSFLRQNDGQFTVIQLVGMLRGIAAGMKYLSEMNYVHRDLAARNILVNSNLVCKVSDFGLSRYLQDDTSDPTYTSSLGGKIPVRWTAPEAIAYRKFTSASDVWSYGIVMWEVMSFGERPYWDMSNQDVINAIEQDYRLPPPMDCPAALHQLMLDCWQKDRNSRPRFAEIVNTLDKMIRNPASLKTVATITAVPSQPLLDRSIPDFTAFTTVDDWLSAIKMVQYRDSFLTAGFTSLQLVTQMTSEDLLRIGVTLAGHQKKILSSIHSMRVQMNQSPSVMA

EphB2 = target: T2, EphB2 (Mus musculus, UniProt P54763); assay: as above; details: maximum in any chemical proteomics experiment
T2 sequence (P54763 19-986): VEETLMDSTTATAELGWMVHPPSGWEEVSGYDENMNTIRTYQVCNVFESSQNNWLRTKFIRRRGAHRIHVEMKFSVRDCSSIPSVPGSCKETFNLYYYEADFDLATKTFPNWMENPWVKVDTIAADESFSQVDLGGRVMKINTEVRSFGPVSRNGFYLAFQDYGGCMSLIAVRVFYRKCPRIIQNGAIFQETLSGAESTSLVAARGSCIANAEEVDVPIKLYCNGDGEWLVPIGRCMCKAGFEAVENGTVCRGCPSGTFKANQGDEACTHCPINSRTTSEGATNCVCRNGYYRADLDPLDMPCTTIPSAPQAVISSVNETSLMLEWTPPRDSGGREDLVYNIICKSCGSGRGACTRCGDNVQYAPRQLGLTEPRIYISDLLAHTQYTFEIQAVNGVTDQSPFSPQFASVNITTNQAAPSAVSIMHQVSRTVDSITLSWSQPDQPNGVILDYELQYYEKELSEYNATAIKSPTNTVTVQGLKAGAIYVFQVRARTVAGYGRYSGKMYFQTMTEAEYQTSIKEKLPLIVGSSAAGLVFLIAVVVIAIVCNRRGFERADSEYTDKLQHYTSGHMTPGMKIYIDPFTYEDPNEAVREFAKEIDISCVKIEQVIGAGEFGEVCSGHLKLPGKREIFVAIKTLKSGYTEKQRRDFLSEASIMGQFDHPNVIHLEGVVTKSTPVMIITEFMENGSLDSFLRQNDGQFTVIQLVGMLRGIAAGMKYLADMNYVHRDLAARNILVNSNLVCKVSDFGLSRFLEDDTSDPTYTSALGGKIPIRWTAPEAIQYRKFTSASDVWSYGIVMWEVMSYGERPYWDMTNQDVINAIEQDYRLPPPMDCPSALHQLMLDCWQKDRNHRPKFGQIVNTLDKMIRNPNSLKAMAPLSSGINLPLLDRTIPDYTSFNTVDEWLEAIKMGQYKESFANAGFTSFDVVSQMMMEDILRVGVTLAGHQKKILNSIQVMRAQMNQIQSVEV

Compound | inhibition of autophosphorylation of TAP-tagged Eph kinases in cells (TAP-tagged Eph kinases [1]) | inhibition of autophosphorylation of TAP-tagged Eph kinases in-vitro (TAP-tagged Eph kinases [2]) | maximal number of non-redundant peptides identified, EphA5 (EphA5) | maximal number of non-redundant peptides identified, EphB1 (EphB1) | maximal number of non-redundant peptides identified, EphB2 (EphB2)
CSc1cccc(Nc2ncc3cc(-c4c(Cl)cccc4Cl)c(=O)n(C)c3n2)c1 [PD173955] | potent inhibitors | potent inhibitors | 4 | 5 | 35
CC(C)[C@H](CO)Nc1nc(Nc2ccc(C(=O)O)c(Cl)c2)c2ncn(C(C)C)c2n1 [Purvalanol B] | – | – | 5 | – | 23
